From ChEMBL document CHEMBL1157917, “Structure-based rational design, synthesis and antifungal activity of oxime-containing azole derivatives” (2010)
≈ marks a conversion by molar mass, not a printed value.

How the values were obtained:
Type in all cases: functional
[1] = tested on: Trichophyton rubrum; experiment: Antifungal activity against Trichophyton rubrum after 7 days by serial dilution method; conditions: 168 h
[2] = tested on: Candida albicans; experiment: Antifungal activity against Candida albicans after 24 hrs by serial dilution method
[3] = tested on: Cryptococcus neoformans; experiment: Antifungal activity against Cryptococcus neoformans after 72 hrs by serial dilution method
[4] = tested on: Aspergillus fumigatus; experiment: Antifungal activity against Aspergillus fumigatus after 7 days by serial dilution method; conditions: 168 h
[5] = tested on: Candida parapsilosis; experiment: Antifungal activity against Candida parapsilosis after 24 hrs by serial dilution method; conditions: Lodderomyces parapsilosis
[6] = tested on: Candida tropicalis; experiment: Antifungal activity against Candida tropicalis after 24 hrs by serial dilution method
[7] = tested on: Pichia kudriavzevii; experiment: Antifungal activity against Candida krusei after 24 hrs by serial dilution method

Row | MIC80 [1] | MIC80 [2] | MIC80 [3] | MIC80 [4] | MIC80 [5] | MIC80 [6] | MIC80 [7] | Compound
1 | 16 µg/mL (≈ 35.1 µM) | 64 µg/mL (≈ 141 µM) | 16 µg/mL (≈ 35.1 µM) | 64 µg/mL (≈ 141 µM) | 64 µg/mL (≈ 141 µM) | 64 µg/mL (≈ 141 µM) | 16 µg/mL (≈ 35.1 µM) | Cc1ccc(CON=C2CCN(CC(O)(Cn3cncn3)c3ccc(F)cc3F)CC2)cc1 (racemic)
2 | 0.0625 µg/mL (≈ 0.136 µM) | 0.016 µg/mL (≈ 0.0348 µM) | 0.016 µg/mL (≈ 0.0348 µM) | 1 µg/mL (≈ 2.18 µM) | 0.004 µg/mL (≈ 0.00871 µM) | 0.0097 µg/mL (≈ 0.0211 µM) | 0.25 µg/mL (≈ 0.544 µM) | OC(CN1CCC(=NOCc2ccc(F)cc2)CC1)(Cn1cncn1)c1ccc(F)cc1F (racemic)
3 | 0.0625 µg/mL (≈ 0.136 µM) | 0.016 µg/mL (≈ 0.0348 µM) | 0.016 µg/mL (≈ 0.0348 µM) | 0.25 µg/mL (≈ 0.544 µM) | 0.016 µg/mL (≈ 0.0348 µM) | 0.016 µg/mL (≈ 0.0348 µM) | 0.25 µg/mL (≈ 0.544 µM) | OC(CN1CCC(=NOCc2cccc(F)c2)CC1)(Cn1cncn1)c1ccc(F)cc1F (racemic)
4 | 0.0625 µg/mL (≈ 0.131 µM) | 0.016 µg/mL (≈ 0.0336 µM) | 0.016 µg/mL (≈ 0.0336 µM) | 1 µg/mL (≈ 2.1 µM) | 0.004 µg/mL (≈ 0.0084 µM) | 0.016 µg/mL (≈ 0.0336 µM) | 0.25 µg/mL (≈ 0.525 µM) | OC(CN1CCC(=NOCc2ccccc2Cl)CC1)(Cn1cncn1)c1ccc(F)cc1F (racemic)
5 | 0.0625 µg/mL (≈ 0.122 µM) | 0.016 µg/mL (≈ 0.0313 µM) | 0.016 µg/mL (≈ 0.0313 µM) | 4 µg/mL (≈ 7.84 µM) | 0.016 µg/mL (≈ 0.0313 µM) | 0.016 µg/mL (≈ 0.0313 µM) | 0.25 µg/mL (≈ 0.49 µM) | OC(CN1CCC(=NOCc2ccc(Cl)cc2Cl)CC1)(Cn1cncn1)c1ccc(F)cc1F (racemic)
6 | 0.0625 µg/mL (≈ 0.122 µM) | 0.25 µg/mL (≈ 0.49 µM) | 0.0625 µg/mL (≈ 0.122 µM) | 1 µg/mL (≈ 1.96 µM) | 0.25 µg/mL (≈ 0.49 µM) | 0.25 µg/mL (≈ 0.49 µM) | 0.25 µg/mL (≈ 0.49 µM) | OC(CN1CCC(=NOCc2ccc(Cl)c(Cl)c2)CC1)(Cn1cncn1)c1ccc(F)cc1F (racemic)
7 | 0.0625 µg/mL (≈ 0.142 µM) | 0.004 µg/mL (≈ 0.00906 µM) | 0.016 µg/mL (≈ 0.0362 µM) | 1 µg/mL (≈ 2.27 µM) | 0.004 µg/mL (≈ 0.00906 µM) | 0.001 µg/mL (≈ 0.00227 µM) | 0.0625 µg/mL (≈ 0.142 µM) | OC(CN1CCC(=NOCc2ccccc2)CC1)(Cn1cncn1)c1ccc(F)cc1F (racemic)

The remaining lines, values behind:

Row | Compound | MIC80 [1] | MIC80 [2] | MIC80 [3] | MIC80 [4] | MIC80 [5] | MIC80 [6] | MIC80 [7]
8 | Cc1ccccc1CON=C1CCN(CC(O)(Cn2cncn2)c2ccc(F)cc2F)CC1 (racemic) | 16 µg/mL (≈ 35.1 µM) | 16 µg/mL (≈ 35.1 µM) | 64 µg/mL (≈ 141 µM) | 64 µg/mL (≈ 141 µM) | 64 µg/mL (≈ 141 µM) | 64 µg/mL (≈ 141 µM) | 64 µg/mL (≈ 141 µM)
9 | N#Cc1ccc(CON=C2CCN(CC(O)(Cn3cncn3)c3ccc(F)cc3F)CC2)cc1 (racemic) | 0.0625 µg/mL (≈ 0.134 µM) | 0.0625 µg/mL (≈ 0.134 µM) | 0.016 µg/mL (≈ 0.0343 µM) | 1 µg/mL (≈ 2.14 µM) | 0.0625 µg/mL (≈ 0.134 µM) | 0.0625 µg/mL (≈ 0.134 µM) | 0.25 µg/mL (≈ 0.536 µM)
10 | CCCc1ccc(CON=C2CCN(CC(O)(Cn3cncn3)c3ccc(F)cc3F)CC2)cc1 (racemic) | 4 µg/mL (≈ 8.27 µM) | 16 µg/mL (≈ 33.1 µM) | 16 µg/mL (≈ 33.1 µM) | 64 µg/mL (≈ 132 µM) | 64 µg/mL (≈ 132 µM) | 64 µg/mL (≈ 132 µM) | 64 µg/mL (≈ 132 µM)
11 | O=[N+]([O-])c1cccc(CON=C2CCN(CC(O)(Cn3cncn3)c3ccc(F)cc3F)CC2)c1 (racemic) | 0.25 µg/mL (≈ 0.514 µM) | 1 µg/mL (≈ 2.06 µM) | 0.0625 µg/mL (≈ 0.128 µM) | 1 µg/mL (≈ 2.06 µM) | 0.0625 µg/mL (≈ 0.128 µM) | 1 µg/mL (≈ 2.06 µM) | 1 µg/mL (≈ 2.06 µM)
12 | OC(CN1CCC(=NOCc2ccccc2F)CC1)(Cn1cncn1)c1ccc(F)cc1F (racemic) | 0.0625 µg/mL (≈ 0.136 µM) | 0.016 µg/mL (≈ 0.0348 µM) | 0.004 µg/mL (≈ 0.00871 µM) | 1 µg/mL (≈ 2.18 µM) | 0.0625 µg/mL (≈ 0.136 µM) | 0.001 µg/mL (≈ 0.00218 µM) | 0.25 µg/mL (≈ 0.544 µM)
13 | OC(CN1CCC(=NOCc2cccc(C(F)(F)F)c2)CC1)(Cn1cncn1)c1ccc(F)cc1F (racemic) | 16 µg/mL (≈ 31.4 µM) | 16 µg/mL (≈ 31.4 µM) | 16 µg/mL (≈ 31.4 µM) | 64 µg/mL (≈ 126 µM) | 64 µg/mL (≈ 126 µM) | 64 µg/mL (≈ 126 µM) | 64 µg/mL (≈ 126 µM)
14 | C[C@@H](c1ncncc1F)[C@](O)(Cn1cncn1)c1ccc(F)cc1F [VORICONAZOLE] | 0.004 µg/mL (≈ 0.0115 µM) | 0.004 µg/mL (≈ 0.0115 µM) | 0.004 µg/mL (≈ 0.0115 µM) | 0.0625 µg/mL (≈ 0.179 µM) | 0.004 µg/mL (≈ 0.0115 µM) | 0.004 µg/mL (≈ 0.0115 µM) | 0.016 µg/mL (≈ 0.0458 µM)
15 | O=[N+]([O-])c1ccc(CON=C2CCN(CC(O)(Cn3cncn3)c3ccc(F)cc3F)CC2)cc1 (racemic) | 0.0625 µg/mL (≈ 0.128 µM) | 0.016 µg/mL (≈ 0.0329 µM) | 0.016 µg/mL (≈ 0.0329 µM) | 1 µg/mL (≈ 2.06 µM) | 0.004 µg/mL (≈ 0.00822 µM) | 0.004 µg/mL (≈ 0.00822 µM) | 0.25 µg/mL (≈ 0.514 µM)
16 | CCc1ccc(CON=C2CCN(CC(O)(Cn3cncn3)c3ccc(F)cc3F)CC2)cc1 (racemic) | 16 µg/mL (≈ 34.1 µM) | 16 µg/mL (≈ 34.1 µM) | 16 µg/mL (≈ 34.1 µM) | 64 µg/mL (≈ 136 µM) | 64 µg/mL (≈ 136 µM) | 64 µg/mL (≈ 136 µM) | 64 µg/mL (≈ 136 µM)
